{"source": "ChEMBL document CHEMBL5325404", "about": "“Identification of inhibitors as drug candidates against Chagas disease” (Eur J Med Chem, 2023)", "key": {"Trypanosoma cruzi": {"tested_on": "Trypanosoma cruzi", "assay": "Antitrypanosomal activity against Trypanosoma cruzi Y trypomastigotes infected in monkey LLC-MK2 cells assessed as parasite growth inhibition incubated for 24 hrs by resazurin dye based microplate reader assay", "assay_type": "functional, organism-based"}, "[1]": {"assay": "Cytotoxicity against mouse NCTC clone 929 cells incubated for 48 hrs by MTT spectrophotometric assay", "assay_type": "toxicity, cell-based", "conditions": "NCTC clone 929 (L929) cells; call rule not given here"}, "[2]": {"assay": "Selectivity index, ratio of CC50 for cytotoxicity against mouse NCTC clone 929 cells to IC50 for antitrypanosomal activity against Trypanosoma cruzi Y trypomastigotes infected in monkey LLC-MK2 cells assessed as parasite growth inhibition", "assay_type": "toxicity, cell-based", "conditions": "read-out: Ratio CC50/IC50"}, "[3]": {"conditions": "Trypanosoma cruzi, Y, LLC-MK2, 24 h, read-out: IC50"}}}
{"smiles": "COc1ccc(C)cc1NC(=O)Cn1nc2cc(C)nc(Nc3ccc(F)cc3)n2c1=O", "values": [{"measurement": "IC50", "setting": "Trypanosoma cruzi", "result": "Not Active"}]}
{"smiles": "Cc1ccc(NC(=O)Cn2nc3cc(C)nc(Nc4ccc(F)c(C)c4)n3c2=O)cc1", "values": [{"measurement": "IC50", "setting": "Trypanosoma cruzi", "result": "Not Active"}]}
{"smiles": "Cc1cc(C)cc(Nc2nc(C)cc3nn(CC(=O)Nc4ccc(C)c(F)c4)c(=O)n23)c1", "values": [{"measurement": "IC50", "setting": "Trypanosoma cruzi", "result": "Not Active"}]}
{"smiles": "Cc1cc2nn(CC(=O)Nc3cc(F)cc(F)c3)c(=O)n2c(Nc2ccc(C)c(F)c2)n1", "values": [{"measurement": "IC50", "setting": "Trypanosoma cruzi", "result": "Not Active"}]}
{"smiles": "Cc1nn(C)c2[nH]c(=O)c(CCC(=O)NC[C@@H]3CCCc4ccccc43)c(C)c12", "values": [{"measurement": "IC50", "setting": "Trypanosoma cruzi", "result": "Not Active"}]}
{"smiles": "Cc1ccc2nc(NC(=O)[C@H]3CCCN3S(=O)(=O)c3cccc4nsnc34)sc2c1", "values": [{"measurement": "IC50", "setting": "Trypanosoma cruzi", "result": "Not Active"}]}
{"smiles": "Cc1cc(C)c2cc(C(=O)NCc3ccccc3Cn3cncn3)[nH]c2c1", "values": [{"measurement": "IC50", "setting": "Trypanosoma cruzi", "result": "Not Active"}]}
{"smiles": "CC(C)Nc1cc(C(=O)c2cc(F)ccc2O)cn2c(=O)c3ccccc3nc12", "values": [{"measurement": "IC50", "setting": "Trypanosoma cruzi", "result": "Not Active"}]}
{"smiles": "Cc1ccc(-n2nnnc2S[C@@H](C)C(=O)NC(=O)Nc2ccccc2)cc1", "values": [{"measurement": "IC50", "setting": "Trypanosoma cruzi", "result": "Not Active"}]}
{"smiles": "Cc1nn(C)c2[nH]c(=O)c(/C=C/C(=O)NCCc3ccc(Cl)cc3Cl)c(C)c12", "values": [{"measurement": "IC50", "setting": "Trypanosoma cruzi", "result": "Not Active"}]}
{"smiles": "CC(=O)c1cn(CC(=O)NCCCc2nnc3ccccn23)c2ccccc12", "values": [{"measurement": "IC50", "setting": "Trypanosoma cruzi", "result": "Not Active"}]}
{"smiles": "COc1ccc(OC)c(Nc2nc(NCCCO)nc3c2cnn3-c2ccccc2)c1", "values": [{"measurement": "IC50", "setting": "Trypanosoma cruzi; [3]", "result": 10.1, "unit": "µM"}, {"measurement": "CC50 at 48 h", "setting": "[1]", "result": "> 200", "unit": "µM"}, {"measurement": "selectivity ratio", "setting": "[2]", "result": "> 19.8"}]}
{"smiles": "OCCCNc1nc(Nc2ccccc2)c2cnn(-c3ccccc3)c2n1", "values": [{"measurement": "IC50", "setting": "Trypanosoma cruzi; [3]", "result": 7.1, "unit": "µM"}, {"measurement": "CC50 at 48 h", "setting": "[1]", "result": 85.2, "unit": "µM"}, {"measurement": "selectivity ratio", "setting": "[2]", "result": 12}]}
{"smiles": "Cc1ccc(-n2cnnn2)cc1NC(=O)N[C@H](C)c1cccc(Cl)c1", "values": [{"measurement": "IC50", "setting": "Trypanosoma cruzi", "result": "Not Active"}]}
{"smiles": "OCCCNc1nc(Nc2ccc(F)cc2)c2cnn(-c3ccccc3)c2n1", "values": [{"measurement": "IC50", "setting": "Trypanosoma cruzi; [3]", "result": 14.8, "unit": "µM"}, {"measurement": "CC50 at 48 h", "setting": "[1]", "result": 39.2, "unit": "µM"}, {"measurement": "selectivity ratio", "setting": "[2]", "result": 2.6}]}
{"smiles": "Cc1ccc(-c2noc(C(=O)NCCNC(=O)COc3ccc(Cl)c(C)c3)n2)cc1", "values": [{"measurement": "IC50", "setting": "Trypanosoma cruzi", "result": "Not Active"}]}
{"smiles": "Cn1nnc2cc(C(=O)Nc3nccn3Cc3ccccc3Cl)ccc21", "values": [{"measurement": "IC50", "setting": "Trypanosoma cruzi", "result": "Not Active"}]}
{"smiles": "CC[C@]1(c2ccccc2)NC(=O)N(NC(=O)CSc2nc(C)nc3sc(C)c(C)c23)C1=O", "values": [{"measurement": "IC50", "setting": "Trypanosoma cruzi; [3]", "result": 13.6, "unit": "µM"}, {"measurement": "CC50 at 48 h", "setting": "[1]", "result": "> 200", "unit": "µM"}, {"measurement": "selectivity ratio", "setting": "[2]", "result": "> 14.7"}]}
{"smiles": "CCOc1ccc(CCNC(=O)C2CCN(c3ncnc4onc(C)c34)CC2)cc1", "values": [{"measurement": "IC50", "setting": "Trypanosoma cruzi", "result": "Not Active"}]}
{"smiles": "Cc1cccc(NC(=O)[C@@H](Cc2ccccc2)NS(=O)(=O)c2cccc3nsnc23)c1", "values": [{"measurement": "IC50", "setting": "Trypanosoma cruzi; [3]", "result": 22.8, "unit": "µM"}, {"measurement": "CC50 at 48 h", "setting": "[1]", "result": 79.5, "unit": "µM"}, {"measurement": "selectivity ratio", "setting": "[2]", "result": 3.5}]}
{"smiles": "COc1ccccc1OCC#CCNS(=O)(=O)c1ccc(Cl)c(Cl)c1", "values": [{"measurement": "IC50", "setting": "Trypanosoma cruzi; [3]", "result": 32.1, "unit": "µM"}, {"measurement": "CC50 at 48 h", "setting": "[1]", "result": 128, "unit": "µM"}, {"measurement": "selectivity ratio", "setting": "[2]", "result": 4}]}
{"smiles": "COc1ccc2nc(NC(=O)CN(C)S(=O)(=O)c3cccc4nsnc34)sc2c1", "values": [{"measurement": "IC50", "setting": "Trypanosoma cruzi", "result": "Not Active"}]}
{"smiles": "Cc1ccc(NC(=O)NC(=O)[C@@H](C)Sc2nncn2Cc2ccco2)c(C)c1", "values": [{"measurement": "IC50", "setting": "Trypanosoma cruzi", "result": "Not Active"}]}
{"smiles": "Cc1ccccc1Nc1nc(N(C)CCO)nc2c1cnn2-c1ccccc1", "values": [{"measurement": "IC50", "setting": "Trypanosoma cruzi; [3]", "result": 12.8, "unit": "µM"}, {"measurement": "CC50 at 48 h", "setting": "[1]", "result": 25, "unit": "µM"}, {"measurement": "selectivity ratio", "setting": "[2]", "result": 2}]}
{"smiles": "Cc1cc(C)c2cc(C(=O)Nc3ccccc3-n3cncn3)[nH]c2c1", "values": [{"measurement": "IC50", "setting": "Trypanosoma cruzi; [3]", "result": 9, "unit": "µM"}, {"measurement": "CC50 at 48 h", "setting": "[1]", "result": 80.9, "unit": "µM"}, {"measurement": "selectivity ratio", "setting": "[2]", "result": 8.9}]}
{"smiles": "Cc1cn([C@@H](C)c2ccccc2)nc1NC(=O)CCc1nc(C(C)C)no1", "values": [{"measurement": "IC50", "setting": "Trypanosoma cruzi", "result": "Not Active"}]}
{"smiles": "CCN(CCO)c1nc(Nc2cc(OC)ccc2OC)c2cnn(-c3ccccc3)c2n1", "values": [{"measurement": "IC50", "setting": "Trypanosoma cruzi", "result": "Not Active"}]}
{"smiles": "Cc1ccc(-n2nnnc2S[C@@H](C)C(=O)NCC(=O)Nc2ccc(F)c(F)c2F)c(C)c1", "values": [{"measurement": "IC50", "setting": "Trypanosoma cruzi; [3]", "result": 37.8, "unit": "µM"}, {"measurement": "CC50 at 48 h", "setting": "[1]", "result": 52.8, "unit": "µM"}, {"measurement": "selectivity ratio", "setting": "[2]", "result": 1.4}]}
{"smiles": "Cc1ccc(C[C@H](C)NC(=O)Nc2ccc(C)c(-n3cnnn3)c2)s1", "values": [{"measurement": "IC50", "setting": "Trypanosoma cruzi", "result": "Not Active"}]}
{"smiles": "O=C(Nc1ccc(F)cc1F)[C@H](NS(=O)(=O)c1cccc2nsnc12)c1ccccc1", "values": [{"measurement": "IC50", "setting": "Trypanosoma cruzi; [3]", "result": 55.2, "unit": "µM"}, {"measurement": "CC50 at 48 h", "setting": "[1]", "result": "> 200", "unit": "µM"}, {"measurement": "selectivity ratio", "setting": "[2]", "result": "> 3.6"}]}
{"smiles": "CCCOCc1ccccc1CNC(=O)Nc1cnc2c(c1)c(C)nn2C", "values": [{"measurement": "IC50", "setting": "Trypanosoma cruzi; [3]", "result": 68.9, "unit": "µM"}, {"measurement": "CC50 at 48 h", "setting": "[1]", "result": 66.9, "unit": "µM"}, {"measurement": "selectivity ratio", "setting": "[2]", "result": 1}]}
{"smiles": "CCOc1ccccc1C(=O)NCC(=O)N1CCC[C@@H](c2nnc3n2CCCCC3)C1", "values": [{"measurement": "IC50", "setting": "Trypanosoma cruzi", "result": "Not Active"}]}
{"smiles": "O=C(Cn1ccnc1[N+](=O)[O-])NCc1ccccc1", "note": "[BENZNIDAZOLE]", "values": [{"measurement": "IC50", "setting": "Trypanosoma cruzi; [3]", "result": 18.4, "unit": "µM"}, {"measurement": "CC50 at 48 h", "setting": "[1]", "result": "> 200", "unit": "µM"}, {"measurement": "selectivity ratio", "setting": "[2]", "result": "> 10.7"}]}
